Among the test systems are OVCAR-3; OVCAR-5; K562; ACHN; SF-539; NCI-H522; OVCAR-4; LOX IMVI; UACC-257; CCRF-CEM; UO-31; HT-29; U-251; HL-60; HCT-15.
Common to all, as to assay: growth of human tumour cells (NCI), 48 h

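How tested: cells in 96-well plates exposed to compound for 48 hours at five concentrations. GI50 = concentration required for 50% inhibition of growth.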 The source made the active and inactive calls. Rule as the data show it: active = GI50 up to about 1.1 µM and inactive = higher. Bounds are passed on as bounds.

Regarding `Clc1ncnc2c1ncn2CCCCCCCCCCCCn1cnc2c(Cl)ncnc21`, the GI50 with OVCAR-3 was 11.2 µM (inactive); in the assay with OVCAR-5, 27.7 µM (inactive); with K562 it was 1.15 µM (inactive); with ACHN, 14.5 µM (inactive); in the assay on SF-539, 14.4 µM (inactive); in the assay with NCI-H522 it was 1.48 µM (inactive). The GI50 in the assay with OVCAR-4 was 11.1 µM (inactive); in the assay on LOX IMVI, 1.43 µM (inactive); with UACC-257, 2.86 µM (inactive); in the assay on CCRF-CEM, 1.36 µM (inactive); in the assay on UO-31, 13.1 µM (inactive); in the assay on HT-29 it was 9.82 µM (inactive). Also, the figures for the GI50 with U-251, in the assay on HL-60 and with HCT-15 were 11.6 µM (inactive), 2.7 µM (inactive) and 13.1 µM, respectively.

In the case of `COc1ccc2nc3cc(Cl)ccc3c(Sc3ccc([N+](=O)[O-])cc3)c2c1`, the GI50 in the assay on OVCAR-3, in the assay with OVCAR-5, with K562, in the assay with ACHN, with SF-539 and with NCI-H522 was > 10 µM (inactive) each time. Besides, the GI50 in the assay with OVCAR-4 is > 10 µM (inactive); with LOX IMVI, > 10 µM (inactive); with UACC-257 it was > 10 µM (inactive); with CCRF-CEM, > 10 µM (inactive); in the assay with UO-31, > 10 µM (inactive); in the assay on HT-29, > 100 µM (inactive). Further, the values for the GI50 in the assay on U-251, in the assay with HL-60 and with HCT-15 were > 10 µM (inactive), > 100 µM (inactive) and greater than 10 µM, respectively.

As for `CCOC(=O)/C(=C\c1ccc[nH]1)C(=O)c1ccccc1`, the GI50 in the assay with OVCAR-3 was > 100 µM (inactive); in the assay with OVCAR-5, > 100 µM (inactive); in the assay with K562, 35.2 µM (inactive); with ACHN, > 100 µM (inactive); in the assay with SF-539, > 100 µM (inactive); in the assay on NCI-H522 it was > 100 µM (inactive). In addition, the GI50 in the assay with OVCAR-4 is > 100 µM (inactive); with LOX IMVI, 91.2 µM (inactive); in the assay with UACC-257 it was > 100 µM (inactive); in the assay with CCRF-CEM, 58.3 µM (inactive); in the assay on UO-31 it was > 100 µM (inactive); in the assay with HT-29 it was > 100 µM (inactive). The GI50 in the assay with U-251 is > 100 µM (inactive); in the assay with HL-60, 23.3 µM (inactive); with HCT-15, greater than 100 µM.

Turning to `c1ccc([P+](CCC[P+](c2ccccc2)(c2ccccc2)c2ccccc2)(c2ccccc2)c2ccccc2)cc1`, the GI50 in the assay with OVCAR-3 is 13.5 µM (inactive); in the assay on OVCAR-5 it was 71.1 µM (inactive); with K562, 8.2 µM (inactive); with ACHN, > 100 µM (inactive); in the assay on SF-539, 39 µM (inactive); in the assay with NCI-H522, 19.5 µM (inactive). Besides, the GI50 was 57 µM (inactive) in the assay on OVCAR-4; 23.7 µM (inactive) in the assay with LOX IMVI; 24 µM (inactive) in the assay with UACC-257; 22.4 µM (inactive) in the assay with CCRF-CEM; > 99.5 µM (inactive) with UO-31; 34.4 µM (inactive) with HT-29. For the same compound, the GI50 was 6.65 µM (inactive) in the assay with U-251 and 10.7 µM (inactive) in the assay on HL-60.

With `O=C(Cc1nc2ccccc2c(=O)n1-c1c(Cl)cccc1Cl)c1ccncc1`, the GI50 in the assay on OVCAR-3 is 21.3 µM (inactive); with K562, 26.7 µM (inactive); in the assay with ACHN, 17.9 µM (inactive); with SF-539, 18.4 µM (inactive); in the assay with NCI-H522, 19.6 µM (inactive); in the assay with OVCAR-4, 27.5 µM (inactive). Also, the GI50 was > 10 µM (inactive) in the assay on LOX IMVI; 22.3 µM (inactive) with UACC-257; 16.7 µM (inactive) in the assay on CCRF-CEM; 13.3 µM (inactive) in the assay on UO-31; 19.6 µM (inactive) with HT-29; 29.6 µM (inactive) with U-251. Besides, the results for the GI50 with HL-60 and in the assay on HCT-15 were 12 µM (inactive) and 24.7 µM, respectively.

Take `COc1ccc(C2[C@H]3C(=O)N(c4ccc(Cc5ccc(N6C(=O)[C@@H]7ON(c8ccccc8)C(c8ccc(OC)cc8)[C@@H]7C6=O)cc5)cc4)C(=O)[C@H]3ON2c2ccccc2)cc1` (stereo partly specified): the GI50 in the assay on OVCAR-3, with OVCAR-5, in the assay with K562, with ACHN, in the assay on SF-539 and in the assay with NCI-H522 was > 100 µM (inactive) each time. The GI50 in the assay with OVCAR-4, with LOX IMVI, with UACC-257, in the assay on CCRF-CEM, in the assay on UO-31 and in the assay on HT-29 was > 100 µM (inactive) throughout. Besides, the GI50 in the assay on U-251 is > 100 µM (inactive); in the assay on HL-60, > 100 µM (inactive); in the assay with HCT-15 it was greater than 100 µM.

On to `CCO/C(CCn1[nH]c(=O)c(Cl)c(Cl)c1=O)=N\NC(=O)C(=O)NN`, for which the GI50 in the assay on OVCAR-3, in the assay on OVCAR-5, with K562, in the assay on ACHN, in the assay with SF-539 and in the assay on NCI-H522 was > 100 µM (inactive) in each case. Besides, the GI50 in the assay with OVCAR-4, in the assay on LOX IMVI, in the assay with UACC-257, in the assay on CCRF-CEM, in the assay with UO-31 and in the assay on HT-29 was > 100 µM (inactive) in each case. Besides, the GI50 with U-251 was > 100 µM (inactive); in the assay on HL-60 it was > 100 µM (inactive); in the assay on HCT-15, greater than 100 µM.

For the compound `O=C1c2c(n(Cc3ccccc3)c(=O)n2Cc2ccccc2)C(=O)N1Cc1ccccc1`, the GI50 is 49.2 µM (inactive) in the assay with OVCAR-3; > 100 µM (inactive) in the assay with OVCAR-5; 58.1 µM (inactive) in the assay on K562; 91.6 µM (inactive) in the assay with ACHN; > 100 µM (inactive) with SF-539; 56.1 µM (inactive) in the assay on NCI-H522. The GI50 was 46.5 µM (inactive) in the assay on OVCAR-4; 32.4 µM (inactive) in the assay on LOX IMVI; 67.6 µM (inactive) in the assay with UACC-257; 9.2 µM (inactive) in the assay with CCRF-CEM; 50.2 µM (inactive) in the assay with UO-31; 82.2 µM (inactive) in the assay with HT-29. Besides, the values for the GI50 in the assay with U-251, with HL-60 and in the assay with HCT-15 were 50.4 µM (inactive), 0.782 µM (active) and 47.8 µM, respectively.

On to `C[N+](C)(C)CC1CCC/C1=N\OC(=O)c1ccccc1` (stereo unspecified), for which the GI50 with OVCAR-3, in the assay on K562, in the assay on ACHN, in the assay on SF-539, with NCI-H522 and in the assay with OVCAR-4 was > 100 µM (inactive) throughout. Also, the GI50 in the assay with LOX IMVI, in the assay with UACC-257, in the assay with CCRF-CEM, in the assay on UO-31, in the assay with HT-29 and with U-251 was > 100 µM (inactive) each time. Moreover, the GI50 in the assay with HL-60 was > 100 µM (inactive); in the assay on HCT-15 it was greater than 100 µM.

As to `C#CCNC(=O)ON1C(=O)CCC1=O`, the GI50 with OVCAR-3, in the assay on OVCAR-5, with K562, in the assay on ACHN, in the assay with SF-539 and in the assay on NCI-H522 was > 100 µM (inactive) each time. Moreover, the GI50 in the assay on OVCAR-4, with LOX IMVI, in the assay on UACC-257, in the assay with CCRF-CEM, in the assay with UO-31 and in the assay on HT-29 was > 100 µM (inactive) throughout. Moreover, the GI50 in the assay with U-251 was > 100 µM (inactive); with HL-60 it was > 100 µM (inactive); in the assay with HCT-15, greater than 100 µM.

For the compound `O=C(CCCCCCCCCCc1ccccc1)c1c(O)cccc1O`, the GI50 was 27 µM (inactive) in the assay on OVCAR-3; 21.2 µM (inactive) in the assay on OVCAR-5; 21.4 µM (inactive) with K562; 28.1 µM (inactive) in the assay with ACHN; 18.1 µM (inactive) in the assay with SF-539; 21.4 µM (inactive) with NCI-H522. Also, the GI50 is 25.3 µM (inactive) with OVCAR-4; 27.2 µM (inactive) in the assay on LOX IMVI; 20.2 µM (inactive) in the assay with UACC-257; 31.6 µM (inactive) in the assay on CCRF-CEM; 21.1 µM (inactive) in the assay on UO-31; 33 µM (inactive) in the assay on HT-29. The values for the GI50 with U-251, in the assay with HL-60 and with HCT-15 were 21.2 µM (inactive), 25.1 µM (inactive) and 20 µM, respectively.

For the compound `CCCCCCCCCCCC1CC(=O)NCCCN(C)CCCCN(C)CCCN1C` (stereo unspecified) [BUDMUNCHIAMINE A], the GI50 is 1.69 µM (inactive) with OVCAR-3; 1.85 µM (inactive) in the assay with OVCAR-5; 0.261 µM (active) in the assay with K562; 1.69 µM (inactive) in the assay with ACHN; 1.75 µM (inactive) in the assay with SF-539; 1.81 µM (inactive) with NCI-H522. For the same compound, the GI50 is 1.74 µM (inactive) in the assay on OVCAR-4; 1.48 µM (inactive) in the assay with LOX IMVI; 1.68 µM (inactive) in the assay on UACC-257; 0.156 µM (active) with CCRF-CEM; 1.72 µM (inactive) in the assay with UO-31; 1.56 µM (inactive) in the assay with HT-29. The figures for the GI50 in the assay on U-251, with HL-60 and with HCT-15 were 1.66 µM (inactive), 0.395 µM (active) and 1.63 µM, respectively.

`Cc1cccc(NC(=O)Cc2nc3ccccc3s2)c1C`: the GI50 in the assay on OVCAR-3, in the assay on OVCAR-5, in the assay with K562, in the assay on ACHN, in the assay on SF-539 and in the assay on NCI-H522 was > 100 µM (inactive) in each case. For the same compound, the GI50 with OVCAR-4, with LOX IMVI, in the assay with UACC-257, with CCRF-CEM, with UO-31 and with HT-29 was > 100 µM (inactive) throughout. The GI50 is > 100 µM (inactive) in the assay on HL-60 and greater than 100 µM in the assay on HCT-15.

In the case of `c1ccc(CNc2ccc3[nH]c4cnccc4c3c2)cc1`, the GI50 is 14 µM (inactive) with OVCAR-3; 16.8 µM (inactive) in the assay on OVCAR-5; 14.3 µM (inactive) in the assay on K562; 15.1 µM (inactive) with ACHN; 18.1 µM (inactive) in the assay with SF-539; 14 µM (inactive) with NCI-H522. Besides, the GI50 is 14.4 µM (inactive) in the assay with OVCAR-4; 17.8 µM (inactive) in the assay on LOX IMVI; 17.4 µM (inactive) in the assay with UACC-257; 16.9 µM (inactive) in the assay with CCRF-CEM; 15.5 µM (inactive) in the assay with UO-31; 17.7 µM (inactive) in the assay on HT-29. Also, the GI50 with U-251 was 15.9 µM (inactive); in the assay on HL-60, 11 µM (inactive); with HCT-15, 19.4 µM.

Source of the values: ChEMBL document CHEMBL1201862, “PubChem BioAssay data set” (2004).
